Legend:
[1] = molecular target: Aryl hydrocarbon receptor nuclear translocator/Endothelial PAS domain-containing protein 1 (Homo sapiens, UniProt P27540+Q99814); experiment: (§1) Inhibition of GST-tagged PAS-B domain of HIF-2alpha-Flag-tagged PAS-B domain of ARNT heterodimerization (unknown origin) by luminescence proximity assay; assay type: protein assay
[2] = molecular target: Aryl hydrocarbon receptor nuclear translocator/Endothelial PAS domain-containing protein 1 (Homo sapiens, UniProt Q99814); experiment: as §1; assay type: protein assay
[3] = molecular target: Endothelial PAS domain-containing protein 1 (Homo sapiens, UniProt Q99814); experiment: Binding affinity to wild type PAS-B domain of HIF-2alpha (unknown origin) by isothermal calorimetry analysis
Chain of Endothelial PAS domain-containing protein 1 (Q99814 whole entry, the tested form may be a part): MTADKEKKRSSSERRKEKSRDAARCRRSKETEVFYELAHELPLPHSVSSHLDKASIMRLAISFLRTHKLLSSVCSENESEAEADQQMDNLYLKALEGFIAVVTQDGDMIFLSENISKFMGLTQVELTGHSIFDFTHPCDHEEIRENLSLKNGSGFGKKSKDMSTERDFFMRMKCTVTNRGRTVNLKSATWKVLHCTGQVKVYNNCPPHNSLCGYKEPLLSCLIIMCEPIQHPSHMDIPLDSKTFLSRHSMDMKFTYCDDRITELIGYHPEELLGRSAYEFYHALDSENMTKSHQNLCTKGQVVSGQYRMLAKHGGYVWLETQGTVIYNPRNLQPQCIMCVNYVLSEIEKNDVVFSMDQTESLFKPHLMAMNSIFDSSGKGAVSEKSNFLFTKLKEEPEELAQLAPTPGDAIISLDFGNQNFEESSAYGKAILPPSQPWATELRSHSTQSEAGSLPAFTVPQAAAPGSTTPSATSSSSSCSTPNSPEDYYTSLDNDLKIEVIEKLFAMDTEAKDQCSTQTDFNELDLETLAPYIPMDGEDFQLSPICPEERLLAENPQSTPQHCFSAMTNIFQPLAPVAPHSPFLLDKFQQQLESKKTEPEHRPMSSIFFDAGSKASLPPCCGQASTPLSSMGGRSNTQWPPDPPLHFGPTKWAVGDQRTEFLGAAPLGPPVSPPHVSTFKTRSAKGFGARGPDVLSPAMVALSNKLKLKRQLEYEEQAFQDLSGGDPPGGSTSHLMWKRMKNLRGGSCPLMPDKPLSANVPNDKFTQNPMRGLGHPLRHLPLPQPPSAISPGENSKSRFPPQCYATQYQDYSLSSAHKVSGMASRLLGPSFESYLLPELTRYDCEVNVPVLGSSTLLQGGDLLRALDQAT

Chain of Aryl hydrocarbon receptor nuclear translocator/Endothelial PAS domain-containing protein 1 (Homo sapiens, UniProt Q99814) (P27540 whole entry, the tested form may be a part): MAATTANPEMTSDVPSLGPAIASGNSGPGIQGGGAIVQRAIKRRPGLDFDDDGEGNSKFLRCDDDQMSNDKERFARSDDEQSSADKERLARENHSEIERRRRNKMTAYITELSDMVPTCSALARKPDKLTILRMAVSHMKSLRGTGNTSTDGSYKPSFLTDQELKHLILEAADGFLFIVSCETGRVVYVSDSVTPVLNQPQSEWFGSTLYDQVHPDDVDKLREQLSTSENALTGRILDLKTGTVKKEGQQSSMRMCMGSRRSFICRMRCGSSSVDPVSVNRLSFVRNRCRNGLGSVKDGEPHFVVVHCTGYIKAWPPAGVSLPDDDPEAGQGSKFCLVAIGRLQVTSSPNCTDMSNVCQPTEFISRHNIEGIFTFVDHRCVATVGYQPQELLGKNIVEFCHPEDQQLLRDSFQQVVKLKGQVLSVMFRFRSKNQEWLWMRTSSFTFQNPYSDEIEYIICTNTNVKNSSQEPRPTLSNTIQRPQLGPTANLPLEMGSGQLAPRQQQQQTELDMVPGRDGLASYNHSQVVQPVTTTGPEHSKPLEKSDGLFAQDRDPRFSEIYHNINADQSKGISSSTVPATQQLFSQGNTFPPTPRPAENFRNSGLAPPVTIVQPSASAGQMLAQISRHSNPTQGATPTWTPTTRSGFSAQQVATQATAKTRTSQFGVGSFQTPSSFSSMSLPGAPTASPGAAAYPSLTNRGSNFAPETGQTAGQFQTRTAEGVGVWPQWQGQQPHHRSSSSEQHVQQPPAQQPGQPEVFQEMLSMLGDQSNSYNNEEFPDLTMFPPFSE
Chain of Aryl hydrocarbon receptor nuclear translocator/Endothelial PAS domain-containing protein 1 (Homo sapiens, UniProt Q99814) (Q99814 whole entry, the tested form may be a part): as the sequence (Q99814 whole entry, the tested form may be a part) above
Chain of Aryl hydrocarbon receptor nuclear translocator/Endothelial PAS domain-containing protein 1 (Homo sapiens, UniProt P27540+Q99814) (P27540 whole entry, the tested form may be a part): as the sequence (P27540 whole entry, the tested form may be a part) above
Chain of Aryl hydrocarbon receptor nuclear translocator/Endothelial PAS domain-containing protein 1 (Homo sapiens, UniProt P27540+Q99814) (Q99814 whole entry, the tested form may be a part): as the sequence (Q99814 whole entry, the tested form may be a part) above

Compound | IC50 [1] | IC50 [2] | Kd [3]
O=[N+]([O-])c1c(Nc2ccc(Br)cc2)ccc2nonc12 | Not Active | – | –
O=[N+]([O-])c1c(Nc2ccc(Cl)cc2)ccc2nonc12 | Not Active | – | –
O=[N+]([O-])c1c(Nc2cc(F)cc(C(F)(F)F)c2)ccc2nonc12 | – | 430 nM | –
O=[N+]([O-])c1c(Nc2cc(F)cc(F)c2)ccc2nonc12 | – | 2000 nM | 730 nM
O=[N+]([O-])c1c(Nc2ccc(Cl)c(Cl)c2)ccc2nonc12 | – | 120 nM | –
O=[N+]([O-])c1c(Nc2cc(F)cc(Cl)c2)ccc2nonc12 | – | 100 nM | 90 nM
O=[N+]([O-])c1ccccc1Nc1cc(F)cc(Cl)c1 | Not Active | – | 4300 nM
O=[N+]([O-])c1c(Nc2cc(F)cc(Cl)c2)ccc2nn[nH]c12 | – | > 10000 nM | > 20000 nM
O=[N+]([O-])c1c(Nc2cc(F)cc(Cl)c2)ccc2[nH]cnc12 | – | < 5000 nM | –
Nc1nc2ccc(Nc3cc(F)cc(Cl)c3)c([N+](=O)[O-])c2[nH]1 | – | > 2000 nM | –
CN(c1cc(F)cc(Cl)c1)c1ccc2nonc2c1[N+](=O)[O-] | – | > 3000 nM | > 10000 nM
Fc1cc(Cl)cc(Nc2ccc3nonc3c2)c1 | Not Active | – | 3000 nM
Nc1c(Nc2cc(F)cc(Cl)c2)ccc2nonc12 | – | > 30000 nM | 6000 nM
CC(=O)Nc1c(Nc2cc(F)cc(Cl)c2)ccc2nonc12 | Not Active | – | –
O=C(CCl)Nc1c(Nc2cc(F)cc(Cl)c2)ccc2nonc12 | Not Active | – | –
O=C1C=CC(=O)N1c1c(Nc2cc(F)cc(Cl)c2)ccc2nonc12 | Not Active | – | –
CNS(=O)(=O)c1c(Nc2cc(F)cc(Cl)c2)ccc2nonc12 | Not Active | – | –
CN(C)S(=O)(=O)c1c(Nc2cc(F)cc(Cl)c2)ccc2nonc12 | Not Active | – | –
O=[N+]([O-])c1c(NCc2ccc(Cl)cc2)ccc2nonc12 | Not Active | – | –
O=[N+]([O-])c1c(NCc2ccc(F)cc2Cl)ccc2nonc12 | – | 330 nM | –
O=[N+]([O-])c1c(NCc2c(F)cccc2Cl)ccc2nonc12 | Not Active | – | –
O=[N+]([O-])c1c(NCc2cc(F)cc(Cl)c2)ccc2nonc12 | – | 2000 nM | –

Compound | IC50 [1] | IC50 [2] | Kd [3]
O=[N+]([O-])c1c(NCc2cc(F)ccc2F)ccc2nonc12 | – | > 10000 nM | –
O=[N+]([O-])c1c(NCc2ccc(F)cc2C(F)(F)F)ccc2nonc12 | – | 500 nM | 540 nM
O=[N+]([O-])c1c(NCc2cc(F)ccc2C(F)(F)F)ccc2nonc12 | Not Active | – | –
O=[N+]([O-])c1c(Sc2ccccc2)ccc2nonc12 | Not Active | – | –
O=[N+]([O-])c1c(Sc2cccc(F)c2)ccc2nonc12 | Not Active | – | –
O=[N+]([O-])c1c(Sc2cc(F)cc(Cl)c2)ccc2nonc12 | Not Active | – | –
O=[N+]([O-])c1c(Oc2cc(F)cc(Cl)c2)ccc2nonc12 | Not Active | – | –
COc1cccc(Nc2ccc3nonc3c2[N+](=O)[O-])c1 | Not Active | – | –
O=[N+]([O-])c1c(Nc2ccc(F)cc2)ccc2nonc12 | Not Active | – | –
O=[N+]([O-])c1c(Nc2cccc(Cl)c2)ccc2nonc12 | – | 180 nM | –
O=[N+]([O-])c1c(Nc2cccc(C(F)(F)F)c2)ccc2nonc12 | – | 460 nM | –
O=[N+]([O-])c1cccc(Nc2ccc3nonc3c2[N+](=O)[O-])c1 | – | 2800 nM | 3000 nM
O=[N+]([O-])c1c(Nc2cccc(F)c2)ccc2nonc12 | – | 2100 nM | 2200 nM
O=[N+]([O-])c1c(Nc2ccc(C(F)(F)F)cc2Cl)ccc2nonc12 | Not Active | – | –
O=[N+]([O-])c1c(Nc2cccc(F)c2Cl)ccc2nonc12 | Not Active | – | –
O=[N+]([O-])c1c(Nc2cccc(Cl)c2F)ccc2nonc12 | – | 760 nM | –
O=[N+]([O-])c1c(Nc2ccc(F)c(Cl)c2)ccc2nonc12 | – | 170 nM | 400 nM
O=[N+]([O-])c1c(Nc2ccc(Cl)c(C(F)(F)F)c2)ccc2nonc12 | – | 90 nM | 170 nM
O=[N+]([O-])c1cc(Nc2ccc3nonc3c2[N+](=O)[O-])ccc1Cl | – | 400 nM | –
O=[N+]([O-])c1c(NCc2ccccc2)ccc2nonc12 | – | > 5000 nM | –
Cc1ccc(CNc2ccc3nonc3c2[N+](=O)[O-])cc1 | Not Active | – | –

Source: ChEMBL document CHEMBL2311249, “Development of inhibitors of the PAS-B domain of the HIF-2α transcription factor” (J Med Chem, 2013)
